According to the METLIN SMRT retention time set (Domingo-Almenara et al. 2019):

Experiment: gradient 5% acetonitrile 3 min, to 50% in 2 min, to 85% in 15 min, held 3 min, 100 µL/min
Details: column: Zorbax Extend-C18 2.1 x 50 mm; eluents: water / acetonitrile, 0.1% formic acid
Procedure, shortened: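 Data were gathered over 3 months by HPLC coupled to a quadrupole time-of-flight mass spectrometer, operated in positive and negative ionization mode. Mixtures of ~100 pure standards ran on a Zorbax Extend-C18 column (2.1 × 50 mm, 1.8 μm) at 100 μL/min, with water and acetonitrile each containing 0.1% formic acid and dead and dwell volumes of 40 μL and 900 μL. Retention time was read from adduct peaks picked by computer and checked manually.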

Structure (SMILES)	RP-LC retention time [s]
COC[C@@H]1CN(Cc2cccc(OC)n2)C[C@H]1c1ccncc1	536
CC(C)N1C(=O)c2cccnc2Sc2cc(NC(=O)c3c(F)cccc3F)ccc21	865
O=C(NC1CCCCC1)C1CCc2sc(C(=O)N3CCOCC3)cc2C1 (stereo not drawn)	741
CCCCN(CC)C(=O)C1CCCN(c2nc3cccnc3s2)C1 (stereo not drawn)	914
CCCNS(=O)(=O)c1cc(-c2[nH]ncc2C(=O)N(C)C)oc1C	608
COC(=O)C1=CN(CC(=O)N2CCN(c3ccc(F)cc3)CC2)S(=O)(=O)N=C1C	878
CCOC(=O)c1c(C)oc2nc(C)nc(N3CCN(c4ccc(C(C)=O)cc4)CC3)c12	642
CCCn1cnc2cc(CNC(=O)CCC3CCCC3)ccc21	649
Cc1cc(C)c(S(=O)(=O)Nc2ccc(CC(=O)N3CCC(O)CC3)cc2)c(C)c1	676
CCCN(C)c1nccnc1OC1CCN(C(=O)C2CCC2)C1 (stereo not drawn)	765
COc1ccc2cc(C(=O)N3CCC(CC(=O)N4CCN(c5ccccn5)CC4)CC3)[nH]c2c1	623
Cc1cccc(C(=O)NCC2CCCN(S(=O)(=O)c3cc(C)c(C)cc3C)C2)c1 (stereo not drawn)	1060
Cc1cc(C)c(NC(=O)Cn2nc3n(c2=O)CCCC3)c(C)c1	684
Cn1nc(-c2nnc(-c3ccccc3F)o2)c2c1CCN(S(=O)(=O)c1ccccc1F)C2	903
Fc1ccc(-c2ccc(CNCC3CCCO3)o2)cc1 (stereo not drawn)	649
Cc1ccc2c(c1)OCC(=O)N2Cc1nc(-c2ccc(C(C)(C)C)cc2)no1	1290
O=C1NC(=S)S/C1=C\c1cc(Br)ccc1OCc1ccccc1Br	1270
Fc1ccc(-c2cc(CN3CCCC3)[nH]n2)cc1	594
Cc1cccc(-c2noc(Cc3nnc(-c4ccccc4)o3)n2)c1	1030
COc1ccc(-c2nnc(-c3ccc(C)c(S(=O)(=O)N4CCCCC4)c3)o2)cc1OC	1060

Structure (SMILES)	RP-LC retention time [s]
Cc1cccc(N(C)C(=O)C2CCCN2S(=O)(=O)c2cc3c(cc2C)NC(=O)CO3)c1 (stereo not drawn)	776
O=C(Nc1ccc2nc3n(c(=O)c2c1)CCCCC3)C(=O)N1CCCCCC1	729
O=c1n(CCc2ccccc2)nc2c(S(=O)(=O)N3CCN(c4ccc(F)cc4)CC3)cccn12	989
CCc1ccc(NS(=O)(=O)c2c(C)sc(C)c2-c2cc(C(F)(F)F)on2)cc1	1240
Cc1nc(N2CCN(c3ccccn3)CC2)c2c(C)c(C(=O)Nc3ccc(C)c(Cl)c3)sc2n1	821
COc1ccc(-n2ccn3cc(-c4ccc5c(c4)OCO5)nc3c2=O)cc1Cl	833
COC(=O)c1ccsc1NC(=O)CS(=O)(=O)Cc1ccccc1	823
CC(=O)c1ccc(NC(=O)c2noc3c2CCCC3)cc1	871
CCn1nccc1-c1cccc(-c2noc(-c3ccc(C#N)cc3)n2)c1	1140
COc1ccc(-c2cc(C(=O)NC3CCCC3)nn2C2CCS(=O)(=O)C2)cc1 (stereo not drawn)	849
CCOc1ccccc1C(=O)NCCS(=O)(=O)N1CCN(c2ccccn2)CC1	597
CCn1nccc1C(=O)NC1CCN(c2ncnc3c2CCC3)C1 (stereo not drawn)	585
CCOc1ccc(NC(=O)Cn2cnc3cc4c(cc32)OCCO4)cc1	661
COc1ccc(Cl)cc1NC(=O)C(=O)NCC1(O)CCOCC1	706
CCn1c(=O)sc2cc(S(=O)(=O)N3CCC(C(=O)Nc4ccc(F)c(Cl)c4)CC3)ccc21	1010
O=C(c1ccc(-c2cccs2)nc1)N1CCCCC1	813
COc1ccc(Cl)cc1NC(=O)N1CCc2nc[nH]c2C1	604
COc1cccc(-c2noc(C3CCCN3C(=O)Nc3ccc4c(c3)OCCO4)n2)c1 (stereo not drawn)	886
N#CCCN1CCN(c2ccc(NC(=O)C3CC3)c(C(=O)O)c2)CC1	579

The remaining lines, values ahead:

RP-LC retention time [s]	Structure (SMILES)
574	CCOc1ccc(NC(=O)Cn2c(N)nc(C)cc2=O)cc1
671	CCC1(CC)NC(=O)N(CC(=O)Nc2ccc(C(=O)OC)cc2)C1=O
612	CC(C)Cn1c(=O)c(N2CCN(S(=O)(=O)c3ccccc3)CC2)nc2ccncc21
903	CCCOc1ccc(CNC(=O)CN2CCN(Cc3ccc(F)cc3)C2=O)cc1
1030	O=c1n(Cc2cccc(Br)c2)nc2c(S(=O)(=O)N3CCc4ccccc4C3)cccn12
981	COc1cccc(-c2noc(CN3C(=O)COc4ccccc43)n2)c1
922	CCSc1nnc(-c2nn(C)c3c2CN(S(=O)(=O)c2cccc(F)c2)CC3)n1CC
705	Cc1cc(NC(=O)c2ccccc2)cc(C)c1O
1110	CC(CNC(=O)c1cc2sc(Cl)cc2n1C)c1ccccc1 (stereo not drawn)
677	O=C(Cc1nnc(-c2ccc3ncccc3c2)o1)NCc1ccc(F)cc1
857	Cc1noc(-c2ccc(OC3CN(C(=O)Cc4cccs4)C3)cc2)n1
805	Cc1ccc(C(=O)NCCn2c(=O)n(Cc3ccccc3)c3cccnc32)s1
725	Cc1ccc(C)c(S(=O)(=O)Nc2ccc(Cn3cncn3)cc2)c1
909	CCn1cc(-c2ccc(F)cc2)cc1C(=O)NCC1CCCO1 (stereo not drawn)
806	CCCn1cc(CCNC(=O)Nc2ccc(F)cc2F)c2cccnc21
610	Cc1cccn2c(=O)nc(SCC(=O)NCc3ccco3)nc12
559	CNc1cc(C(N)=O)c2cccc(Cl)c2n1
742	Cc1ccc(-c2cc3c(=O)n(Cc4noc(CN5CCC(C)CC5)n4)ccn3n2)cc1C
840	Cc1ccc(Cn2c(=O)n(CCNC(=O)c3ccc(C)s3)c3ncccc32)cc1
832	COCCNC(=O)C1CCN(c2nc3ccc(-c4ccccc4)nc3s2)CC1
883	O=C(NCc1ccco1)C1CCN(c2nccnc2Sc2ccccc2)CC1
702	O=C(Cc1cccc(C(F)(F)F)c1)N1CCN(c2nnc3ccccn23)CC1
1020	O=c1n(Cc2cccc(C(F)(F)F)c2)nc2c(S(=O)(=O)N3CCCCCC3)cccn12
655	Cc1nn(C(C)C(=O)NCCCN(C)c2ccccc2)c(=O)c2c(C)n(-c3ccccc3)nc12 (stereo not drawn)
752	CCOC(=O)c1ccc(NC(=O)CCc2c(-c3ccc(Cl)cc3)nc3ccccn23)cc1
616	CCc1nc(N)n(CC(=O)NCc2ccccc2Cl)c(=O)c1C
902	COc1ccccc1C1CC(c2ccccc2NS(C)(=O)=O)=NN1C(=O)c1ccco1 (stereo not drawn)
689	Cc1cc(C)n2nc(SCC(=O)NCCc3ccccc3)nc2n1
655	COc1ccc(-n2c(Cc3cccn3C)nnc2SCC(=O)NCC2CCCO2)cc1 (stereo not drawn)
